Results on 4 compounds are retold here after patent publication EP0059645A1, “Method and kit for identification of beta-lactamases” (NATIONAL RESEARCH DEVELOPMENT CORPORATION, priority 1981, dated 1982).

Structures are written as SMILES. Marks after values point to notes of the source that are not given here.

What all share (test): Competitive assay with nitrocefin (RSAI)
One experiment has as its target PSE-4 (Pseudomonas aeruginosa, UniProt P16897). It counts as biochemical, Ps.aerug. 1559E. More on the design: Normally, therefore, the beta-lactamase has to be extracted from the cells for the purpose of the present invention; endogenous in cells.
A further experiment has as its target OXA-2 (Escherichia coli, UniProt P0A1V9). It counts as biochemical, E. coli R46. More on the design: the beta-lactamase has to be extracted from the cells for the purpose of the present invention; made in house; host or cells: E. coli carrying R46 according to the earlier reading (crude cell extract).
The subject of the next experiment is K1073. The class given is biochemical, Klebsiella 1073. The source says:
(§1) It is convenient to express the results in terms of a Relative Substrate Affinity Index (RSAI) value.
(§2) RSAI = Concentration of competing substrate which gives 50% inhibition of ring-opening hydrolysis of the chromogenic substrate
(§3) Concentration of chromogenic substrate in the assay A high RSAI value therefore indicates a low affinity of the beta-lactamase for that competing substrate, and therefore predicts resistance of a beta-lactam competing substrate to hydrolysis by the beta-lactamase. Low RSAI values, in contrast, predict sensitivity to hydrolysis by a beta-lactamase.
(§4) Beta-lactam antibiotics which bind to the TEM-2 enzyme compete with nitrocefin in the assay. […] . This concentration of ampicillin is a direct estimate of the relative affinity of the TEM-2 enzyme for ampicillin. […] . The RSAI value was therefore 1.3.

Another experiment deals with PSE-1 (Pseudomonas aeruginosa, UniProt Q03170). It counts as biochemical, Ps.aerug. 1937E. More on the design: Normally, therefore, the beta-lactamase has to be extracted from the cells for the purpose of the present invention; endogenous in cells.
Another experiment has as its target OXA-3 (Pseudomonas aeruginosa, UniProt Q51429). It counts as biochemical, E. coli R57B. More on the design: Normally, therefore, the beta-lactamase has to be extracted from the cells for the purpose of the present invention; endogenous in cells.
The next experiment has as its target TEM-1 (Escherichia coli, UniProt P62593). It counts as biochemical, E. coli 2136E. More on the design: the beta-lactamase has to be extracted from the cells for the purpose of the present invention; made in house; host or cells: E. coli 2136E (plasmid-bearing strain; crude cell extract).
A further experiment concerns K10317. It counts as biochemical, K.aerog. 10317.
Text: as §1, §2, §3, §4

In experiment [1] the target is T1, Chromosomal, constitutive beta-lactamase enzyme (Enterobacter cloacae, UniProt P05364).
T1 construct: Normally, therefore, the beta-lactamase has to be extracted from the cells for the purpose of the present invention; endogenous in cells
It counts as biochemical, E. cloacae.

Experiment [2] has as its target T2, Chromosomal, induced beta-lactamase enzyme (Pseudomonas aeruginosa, UniProt P24735).
T2 construct: Normally, therefore, the beta-lactamase has to be extracted from the cells for the purpose of the present invention; endogenous in cells; host or cells: Pseudomonas aeruginosa 1937E grown with ampicillin
The class given is biochemical, Ps.aerug. 1937E + ampicillin.

The next experiment concerns HMS-1. It counts as biochemical, E. coli 1946.
In the next experiment the test system is PSE-3. The class given is biochemical, Ps.aerug. 1920E.
The next experiment deals with OXA-1 (Escherichia coli, UniProt P13661). It counts as biochemical, E. coli 1527E. More on the design: the beta-lactamase has to be extracted from the cells for the purpose of the present invention; made in house; host or cells: E. coli 1527E according to the earlier reading (crude cell extract).
Experiment [3] has as its target Chromosomal, hyper-induced beta-lactamase enzyme (Escherichia coli, UniProt P00811). The class given is biochemical, E. coli SNU35. More on the design: Normally, therefore, the beta-lactamase has to be extracted from the cells for the purpose of the present invention; endogenous in cells; host or cells: E. coli SNU 35 (artificially produced strain).
In a further experiment the target is SHV-1 (Escherichia coli, UniProt P0AD63). It counts as biochemical, E. coli 2008E. More on the design: the beta-lactamase has to be extracted from the cells for the purpose of the present invention; made in house; host or cells: E. coli 2008E (crude cell extract).
For the next experiment, the target named is PSE-2 (Pseudomonas aeruginosa, UniProt P14489). It counts as biochemical, Ps.aerug. 1973E. More on the design: Normally, therefore, the beta-lactamase has to be extracted from the cells for the purpose of the present invention; endogenous in cells.
The test system of another experiment is K17. It counts as biochemical, Klebsiella 17.
Text: as §1, §2, §3, §4

A further experiment has as its target TEM-2 (Escherichia coli, UniProt P62593, Q37K). It counts as biochemical, E. coli 1725E.
Text: as §1, §2, §3, §4

On to `CC1(C)S[C@@H]2[C@H](NC(=O)[C@H](N)c3ccc(O)cc3)C(=O)N2[C@H]1C(=O)O` [Amoxy-cillin, amoxycillin], for which the RSAI on PSE-4 stood at 1; at OXA-2 it was 8; with K1073, 1.7; at PSE-1, 0.9; on OXA-3 it was 8.6; on TEM-1 it was 1.3. Besides, the RSAI in the experiment with K10317 came out at 7; in [1], 0.05; in experiment [2], 0.035; in the experiment with HMS-1, 0.8; with PSE-3, 1.5; on OXA-1, 1.2. The RSAI in experiment [3] is recorded as 0.02; on SHV-1 it was 2.8; at PSE-2 it was 2.2; with K17, 1.3; on TEM-2 it was 2.2.

Consider `CC1(C)S[C@@H]2[C@H](NC(=O)[C@H](C(=O)O)c3ccsc3)C(=O)N2[C@H]1C(=O)O` [Ticar-cillin, ticarcillin], for which the RSAI at PSE-4 was found to be 0.65; at OXA-2 it was 26; in the experiment with K1073, 0.485; at PSE-1, 0.63; on OXA-3 it was 12; on TEM-1, 0.035. Also, the RSAI in the experiment with K10317 is on record as 0.48; in [1] it was 0.0008*; in [2], 0.0065; in the experiment with HMS-1 it was 0.175; in the experiment with PSE-3 it was 2; on OXA-1 it was 0.65. Moreover, the RSAI in experiment [3] is reported as 0.001; at SHV-1, 0.23; at PSE-2, 2.4; with K17, 0.25; at TEM-2, 0.49.

As for `C[C@@H](O)[C@H]1C(=O)N2C(C(=O)O)=C(SCCN=CN)C[C@H]12` [MK 0787 (N-Formimidoyl-thienamycin), N-Formimidoyl-thienamycin], the RSAI on PSE-4 is listed as 15; on OXA-2, 0.005*; in the experiment on K1073 it was 1.9; at PSE-1, 19.4; at OXA-3, 0.0016*; on TEM-1, 0.1. Also, the RSAI in the experiment with K10317 is 0.24; in experiment [1], 0.03; in experiment [2], 0.015; in the experiment with HMS-1 it was 1.2; in the experiment with PSE-3 it was 0.5; on OXA-1, 0.6*. For the same compound, the RSAI is listed as 2 in experiment [3]; 1.2 on SHV-1; 0.08 on PSE-2; 2.1 in the experiment with K17; 0.1 at TEM-2.

For `CC(=O)OCC1=C(C(=O)O)N2C(=O)[C@@H](NC(=O)Cc3cccs3)[C@H]2SC1` [Cephalo-thin, Cephalothin], the RSAI worked out at 6 at PSE-4; 0.7 on OXA-2; 5.8 in the experiment on K1073; 4 on PSE-1; 0.4 at OXA-3; 10 at TEM-1. For the same compound, the RSAI in the experiment with K10317 came to 7; in experiment [1], 0.6; in [2] it was 0.7; with HMS-1, 1; with PSE-3 it was 0.76; on OXA-1, 4. Besides, the RSAI is on record as 0.8 in experiment [3]; 7 at SHV-1; 0.54 at PSE-2; 1.8 in the experiment with K17; 15 at TEM-2.
